Laboratory results as given in US20230027026A1, “FUSED PYRIMIDINE COMPOUNDS, COMPOSITIONS AND MEDICINAL APPLICATIONS THEREOF” (JUBILANT BIOSYS LIMITED, priority 2019, published 2023).

What was measured:
[1] = target: HER2 (A775_G776insYVMA) expressing Ba/F3 stable cell line (Homo sapiens, UniProt P04626, DUP772-775, cells depend on it); assay: Cellular proliferation (Alamar Blue) assay, HER2 YVMA Ba/F3; assay type: cell-based; conditions: HER2 A775_G776insYVMA Ba/F3, 72 hr, read-out: YVMA IC50
In short: (§1)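 Alamar Blue proliferation read-out (3 h incubation, ex 540/em 590 nm) after 72 h compound exposure at 37 °C, 5% CO2, using final concentrations of 10-0.0005 μM in 3-fold steps. Cells: engineered Ba/F3 lines at 15,000 per well in RPMI/10% FBS, and BT-474.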

[2] = target: EGFR(D770_N771insSVD) expressing Ba/F3 stable cell line (Homo sapiens, UniProt P00533, DUP768-770, cells depend on it); assay: Cellular proliferation (Alamar Blue) assay, EGFR D770_N771insSVD Ba/F3; assay type: cell-based; conditions: EGFR D770_N771insSVD Ba/F3, 72 hr, read-out: D770 IC50
In short: as §1

[3] = system: H1975 cells (L858R_T790M mutant); assay: H1975 proliferation assay; assay type: cell-based; conditions: Homo sapiens, NCI-H1975; read-out: Proliferation_Assay H1975 cells-EC50_nM L858R_T790M_mutant
[4] = target: EGFR (A767_dupASV) expressing Ba/F3 stable cell line (Homo sapiens, UniProt P00533, DUP767-769, cells depend on it); assay: Cellular proliferation (Alamar Blue) assay, EGFR A767_dupASV Ba/F3; assay type: cell-based; conditions: EGFR A767_dupASV Ba/F3, 72 hr, read-out: A767 IC50
Sequence of EGFR (A767_dupASV) expressing Ba/F3 stable cell line (P00533 with tags, fused parts or gaps DUP767-769): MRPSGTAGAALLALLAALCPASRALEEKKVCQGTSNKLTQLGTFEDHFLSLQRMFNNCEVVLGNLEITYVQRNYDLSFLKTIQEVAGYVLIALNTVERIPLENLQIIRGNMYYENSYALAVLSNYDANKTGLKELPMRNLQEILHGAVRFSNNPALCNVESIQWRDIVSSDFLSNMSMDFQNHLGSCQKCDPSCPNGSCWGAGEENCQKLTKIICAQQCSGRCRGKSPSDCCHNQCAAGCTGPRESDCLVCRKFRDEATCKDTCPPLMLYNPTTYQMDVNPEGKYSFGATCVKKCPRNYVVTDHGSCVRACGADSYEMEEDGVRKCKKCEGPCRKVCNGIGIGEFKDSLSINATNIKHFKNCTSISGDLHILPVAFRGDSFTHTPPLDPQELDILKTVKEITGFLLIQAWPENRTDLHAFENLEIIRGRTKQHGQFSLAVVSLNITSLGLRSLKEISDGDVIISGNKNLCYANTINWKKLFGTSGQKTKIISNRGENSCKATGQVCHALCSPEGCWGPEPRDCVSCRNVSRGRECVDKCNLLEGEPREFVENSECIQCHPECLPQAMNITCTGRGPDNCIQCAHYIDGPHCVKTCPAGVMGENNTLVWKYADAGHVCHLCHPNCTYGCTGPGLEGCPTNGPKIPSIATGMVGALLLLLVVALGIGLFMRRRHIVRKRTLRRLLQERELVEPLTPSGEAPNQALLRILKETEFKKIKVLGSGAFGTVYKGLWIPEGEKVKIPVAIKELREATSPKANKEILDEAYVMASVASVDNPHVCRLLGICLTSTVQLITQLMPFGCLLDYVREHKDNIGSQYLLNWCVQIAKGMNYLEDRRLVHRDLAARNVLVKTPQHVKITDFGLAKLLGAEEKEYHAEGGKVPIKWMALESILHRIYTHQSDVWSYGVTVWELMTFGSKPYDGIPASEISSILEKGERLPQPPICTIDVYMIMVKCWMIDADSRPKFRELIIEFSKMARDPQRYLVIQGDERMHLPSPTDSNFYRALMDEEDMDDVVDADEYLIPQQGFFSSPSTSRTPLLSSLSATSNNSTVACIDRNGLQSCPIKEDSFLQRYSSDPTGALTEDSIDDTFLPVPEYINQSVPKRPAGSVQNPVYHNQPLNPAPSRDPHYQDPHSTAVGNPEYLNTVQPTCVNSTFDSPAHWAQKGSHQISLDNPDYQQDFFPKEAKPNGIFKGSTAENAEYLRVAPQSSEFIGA
In short: as §1

[5] = target: HER2 (WT) expressing Ba/F3 stable cell line (Homo sapiens, UniProt P04626); assay: Cellular proliferation (Alamar Blue) assay, HER2 WT Ba/F3; assay type: cell-based; conditions: HER2 WT Ba/F3, 72 hr, read-out: HER2 WT Ba/F3 IC50
Sequence of HER2 (WT) expressing Ba/F3 stable cell line (P04626 whole entry, change not shown): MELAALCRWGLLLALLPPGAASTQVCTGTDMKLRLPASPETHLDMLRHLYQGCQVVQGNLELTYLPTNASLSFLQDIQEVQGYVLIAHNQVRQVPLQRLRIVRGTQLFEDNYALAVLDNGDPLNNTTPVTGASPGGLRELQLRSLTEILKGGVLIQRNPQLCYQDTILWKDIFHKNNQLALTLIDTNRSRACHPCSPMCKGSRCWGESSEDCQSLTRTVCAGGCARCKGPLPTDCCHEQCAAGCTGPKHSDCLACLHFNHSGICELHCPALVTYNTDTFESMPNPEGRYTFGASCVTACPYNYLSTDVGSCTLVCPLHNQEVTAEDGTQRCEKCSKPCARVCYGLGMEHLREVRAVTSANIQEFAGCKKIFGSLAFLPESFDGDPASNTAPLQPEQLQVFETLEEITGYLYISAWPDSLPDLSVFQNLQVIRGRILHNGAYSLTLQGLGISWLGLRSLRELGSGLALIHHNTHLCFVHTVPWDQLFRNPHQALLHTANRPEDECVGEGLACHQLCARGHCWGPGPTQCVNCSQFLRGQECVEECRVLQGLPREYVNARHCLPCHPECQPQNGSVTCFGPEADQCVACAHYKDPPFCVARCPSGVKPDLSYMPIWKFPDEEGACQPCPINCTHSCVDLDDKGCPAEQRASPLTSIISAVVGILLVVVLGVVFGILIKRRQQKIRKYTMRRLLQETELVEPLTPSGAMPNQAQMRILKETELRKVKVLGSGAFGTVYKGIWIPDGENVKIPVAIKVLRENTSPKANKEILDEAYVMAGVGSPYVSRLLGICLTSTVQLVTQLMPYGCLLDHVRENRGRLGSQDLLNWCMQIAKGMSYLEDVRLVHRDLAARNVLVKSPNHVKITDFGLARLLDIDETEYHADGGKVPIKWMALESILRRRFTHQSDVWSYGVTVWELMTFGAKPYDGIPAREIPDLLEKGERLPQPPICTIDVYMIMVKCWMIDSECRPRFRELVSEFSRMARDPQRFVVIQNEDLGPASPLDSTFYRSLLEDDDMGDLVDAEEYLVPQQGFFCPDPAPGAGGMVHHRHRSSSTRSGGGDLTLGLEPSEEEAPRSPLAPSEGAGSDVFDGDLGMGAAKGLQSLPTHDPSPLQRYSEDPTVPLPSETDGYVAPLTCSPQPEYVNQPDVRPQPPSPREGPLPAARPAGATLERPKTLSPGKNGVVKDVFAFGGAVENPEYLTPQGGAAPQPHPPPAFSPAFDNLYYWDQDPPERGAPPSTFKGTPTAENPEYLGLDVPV
Experimental: (§2) Example 3: Cellular Proliferation (Alamar Blue) Assays
(§3) • 1. EGFR(D770_N771insSVD) expressing Ba/F3 stable cell line • 2. EGFR (A767_dupASV) expressing Ba/F3 stable cell line • 3. A431 cells • 4. BTER2 (A775_G776insYVMA) expressing Ba/F3 stable cell line • 5. BTER2 (WT) expressing Ba/F3 stable cell line • 6. BT-474 cells
(§4) • 1. Seed cells at 5000 for A431 and 15,000 cells for Ba/F3 in 100 μL/well in complete media (for A431: DMEM with 10% FBS and for Ba/F3 cells: RPMI with 10% FBS) in 96-well tissue culture plate. Leave outer wells without cells for background measurements. Incubate at 37 degree Celsius in 5% CO2 humidified incubator for 16-18 hours. • 2. Add 0.025 ml of 5× concentration compound dilution or DMSO control. Final compound concentration range is 10-0.0005 μM prepared in 3-fold serial dilutions. Incubate for 72 hr at 37 degree Celsius in […] humidified incubator. • 3. Add 0.0125 mL Alamar Blue™ reagent to each well with multi-channel pipette and tap gently on each side of the plate to mix. Incubate for 3 hours at 37 degree Celsius in […] humidified incubator. • 4. Read plates on fluorescence reader (Tecan Spark Control, Device: Spark, Serial #: 1801006040) at 540 nm excitation, 590 nm emission wavelength. • 5. Data analysis was performed using XLfit 5.5.0.5.

A431 cells = assay: Cellular proliferation (Alamar Blue) assay, A431; assay type: cell-based; conditions: Homo sapiens, A-431; A431 cells, 72 hr, Alamar Blue; read-out: A431 IC50
In short: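 Seventy-two-hour growth assay with 3-fold compound titration (final 10–0.0005 μM) and Alamar Blue fluorescence end point, ex 540/em 590 nm.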

EGFR (T790M/L858R) = target: T1, EGFR (T790M/L858R) (Homo sapiens, UniProt P00533, L858R/T790M); assay: EGFR L858R/T790M enzyme inhibition assay (HTRF); assay type: biochemical; conditions: 5 μM ATP, 60 min, read-out: EGFR_L858R T790M_IC50_nM
T1 construct: GST; purchased Proqinase
T1 sequence (P00533 25-1210 T790M/L858R): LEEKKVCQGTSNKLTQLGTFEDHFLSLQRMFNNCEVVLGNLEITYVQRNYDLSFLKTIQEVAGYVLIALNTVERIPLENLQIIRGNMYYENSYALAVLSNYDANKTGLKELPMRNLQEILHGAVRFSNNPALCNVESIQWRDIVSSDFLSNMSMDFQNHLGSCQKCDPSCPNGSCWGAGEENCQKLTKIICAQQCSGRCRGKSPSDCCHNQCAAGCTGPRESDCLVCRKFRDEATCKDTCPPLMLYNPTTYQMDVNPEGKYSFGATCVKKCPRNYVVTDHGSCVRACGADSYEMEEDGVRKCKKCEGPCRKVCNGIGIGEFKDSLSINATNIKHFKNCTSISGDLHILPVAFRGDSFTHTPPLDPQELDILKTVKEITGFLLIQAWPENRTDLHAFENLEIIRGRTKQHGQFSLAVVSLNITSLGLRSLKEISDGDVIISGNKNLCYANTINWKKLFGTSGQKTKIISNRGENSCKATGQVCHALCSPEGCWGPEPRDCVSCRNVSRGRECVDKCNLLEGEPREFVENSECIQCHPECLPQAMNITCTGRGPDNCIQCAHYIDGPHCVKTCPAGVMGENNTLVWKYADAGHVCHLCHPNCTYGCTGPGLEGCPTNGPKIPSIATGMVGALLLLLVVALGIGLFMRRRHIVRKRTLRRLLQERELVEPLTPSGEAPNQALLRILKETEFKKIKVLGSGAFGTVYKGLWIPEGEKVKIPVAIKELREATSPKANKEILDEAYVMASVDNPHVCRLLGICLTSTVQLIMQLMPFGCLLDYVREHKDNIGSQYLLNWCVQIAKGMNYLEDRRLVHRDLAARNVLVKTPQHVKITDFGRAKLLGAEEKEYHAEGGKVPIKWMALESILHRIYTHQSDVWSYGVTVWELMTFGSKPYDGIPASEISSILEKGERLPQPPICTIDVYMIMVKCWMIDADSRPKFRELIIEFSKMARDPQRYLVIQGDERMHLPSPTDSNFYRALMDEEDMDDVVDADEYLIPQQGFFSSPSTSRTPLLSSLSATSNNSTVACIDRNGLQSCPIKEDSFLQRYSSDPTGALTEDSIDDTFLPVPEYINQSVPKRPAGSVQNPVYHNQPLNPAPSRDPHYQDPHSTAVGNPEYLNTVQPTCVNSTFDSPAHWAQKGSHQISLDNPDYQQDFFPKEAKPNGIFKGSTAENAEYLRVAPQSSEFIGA
In short: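 HTRF kinase assay with 2.5 nM GST-EGFR T790M/L858R, 0.5 μM biotinylated gastrin peptide and 5 μM ATP in HEPES pH 7.4 with Mg/Mn, 60 min at room temperature; compounds from 10 μM top. Phosphotyrosine detected by Eu anti-pTyr/SA-APC; IC50 from % inhibition.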

BT-474 cells = assay: Cellular proliferation (Alamar Blue) assay, BT-474; assay type: cell-based; conditions: Homo sapiens
Experimental: as §2, §3, §4

Sequence of HER2 (A775_G776insYVMA) expressing Ba/F3 stable cell line (P04626 with tags, fused parts or gaps DUP772-775): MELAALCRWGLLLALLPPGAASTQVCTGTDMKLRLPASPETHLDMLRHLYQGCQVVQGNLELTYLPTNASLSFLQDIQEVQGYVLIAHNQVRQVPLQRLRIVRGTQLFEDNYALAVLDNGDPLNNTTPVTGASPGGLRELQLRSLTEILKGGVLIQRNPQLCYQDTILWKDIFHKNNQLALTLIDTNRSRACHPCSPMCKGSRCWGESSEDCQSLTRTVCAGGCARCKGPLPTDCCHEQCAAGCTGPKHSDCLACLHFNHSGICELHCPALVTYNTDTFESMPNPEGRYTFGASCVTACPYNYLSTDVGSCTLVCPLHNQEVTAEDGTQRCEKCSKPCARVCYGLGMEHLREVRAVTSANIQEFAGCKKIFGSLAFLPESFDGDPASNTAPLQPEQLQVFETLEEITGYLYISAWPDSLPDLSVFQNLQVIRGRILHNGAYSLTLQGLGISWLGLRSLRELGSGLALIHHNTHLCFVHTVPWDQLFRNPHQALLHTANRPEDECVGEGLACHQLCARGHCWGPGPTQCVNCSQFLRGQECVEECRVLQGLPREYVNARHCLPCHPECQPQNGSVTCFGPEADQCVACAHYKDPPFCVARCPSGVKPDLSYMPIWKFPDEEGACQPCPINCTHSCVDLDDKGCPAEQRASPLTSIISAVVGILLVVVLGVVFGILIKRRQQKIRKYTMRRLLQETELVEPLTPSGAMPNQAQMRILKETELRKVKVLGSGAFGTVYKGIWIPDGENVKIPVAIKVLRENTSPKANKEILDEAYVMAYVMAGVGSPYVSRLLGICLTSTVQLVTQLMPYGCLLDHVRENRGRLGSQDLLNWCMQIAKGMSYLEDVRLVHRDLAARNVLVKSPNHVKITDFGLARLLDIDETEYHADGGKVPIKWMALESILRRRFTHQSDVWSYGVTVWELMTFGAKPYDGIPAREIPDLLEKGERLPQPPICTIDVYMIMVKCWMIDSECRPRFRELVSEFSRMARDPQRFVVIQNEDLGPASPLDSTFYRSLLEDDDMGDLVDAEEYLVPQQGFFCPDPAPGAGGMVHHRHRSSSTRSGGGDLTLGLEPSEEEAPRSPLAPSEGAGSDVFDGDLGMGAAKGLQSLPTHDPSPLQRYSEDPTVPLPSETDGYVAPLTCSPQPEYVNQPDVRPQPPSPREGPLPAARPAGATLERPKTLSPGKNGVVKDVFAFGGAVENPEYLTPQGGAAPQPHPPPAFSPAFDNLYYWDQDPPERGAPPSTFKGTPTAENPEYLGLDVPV

GI50 [1]: 14.9 nM
GI50 [2]: 35 nM
EC50 [3]: 2 nM
GI50 [4]: 34 nM
GI50 [5]: 0.7 nM
IC50 (A431 cells): 595 nM
IC50 (EGFR (T790M/L858R)): 1 nM
IC50 (BT-474 cells): 4.1 nM
Compound: CN(C)C/C=C/C(=O)Nc1cccc(N2C(=O)N(Cc3ccccc3)Cc3cnc(Nc4cn(C)nc4Cl)nc32)c1 [Compound 20, (E)-N-(3-(3-benzyl-7-((3-chloro-1-methyl-1H-pyrazol-4-yl)amino)-2-oxo-3,4-dihydropyrimido[4,5-d]pyrimidin-1(2H)-yl)phenyl)-4-(dimethylamino)but-2-enamide]
